Test results from the supplement of paper PMC11451515.

Test system: SEM cells
Assay: cell viability relative to DMSO control; higher = less cytotoxic
Conditions: 48 h
Method in brief: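 Before seeding, each leukemia line was adapted for at least four passages in each medium. NOMO1 or SEM cells (500 cells/well) and P12-Ichikawa cells (1000 cells/well) went into 1536-well plates at 5 μl, then received library compounds in DMSO by pin dosing across 11 threefold concentrations, 47 μM to 0.79 nM. Readout was CellTiter-Glo One luminescence after 48 h at 37°C, and viability is given as a per-plate percentage of DMSO wells, with cell-free wells as background.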

[1] = HPLM + 10% dialyzed FBS, 0.000781 µM
[2] = HPLM + 10% dialyzed FBS, 0.00234 µM
[3] = HPLM + 10% dialyzed FBS, 0.00702 µM
[4] = HPLM + 10% dialyzed FBS, 0.0211 µM
[5] = HPLM + 10% dialyzed FBS, 0.0632 µM
[6] = HPLM + 10% dialyzed FBS, 0.19 µM
[7] = HPLM + 10% dialyzed FBS, 0.569 µM
[8] = HPLM + 10% dialyzed FBS, 1.71 µM
[9] = HPLM + 10% dialyzed FBS, 5.12 µM
[10] = HPLM + 10% dialyzed FBS, 15.4 µM
[11] = HPLM + 10% dialyzed FBS, 46.1 µM
[12] = RPMI 5 mM glucose + 10% FBS, 0.000781 µM
[13] = RPMI 5 mM glucose + 10% FBS, 0.00234 µM
[14] = RPMI 5 mM glucose + 10% FBS, 0.00702 µM
[15] = RPMI 5 mM glucose + 10% FBS, 0.0211 µM
[16] = RPMI 5 mM glucose + 10% FBS, 0.0632 µM
[17] = RPMI 5 mM glucose + 10% FBS, 0.19 µM
[18] = RPMI 5 mM glucose + 10% FBS, 0.569 µM
[19] = RPMI 5 mM glucose + 10% FBS, 1.71 µM
[20] = RPMI 5 mM glucose + 10% FBS, 5.12 µM
[21] = RPMI 5 mM glucose + 10% FBS, 15.4 µM
[22] = RPMI 5 mM glucose + 10% FBS, 46.1 µM
[23] = RPMI 5 mM glucose + 10% dialyzed FBS, 0.000781 µM
[24] = RPMI 5 mM glucose + 10% dialyzed FBS, 0.00234 µM
[25] = RPMI 5 mM glucose + 10% dialyzed FBS, 0.00702 µM
[26] = RPMI 5 mM glucose + 10% dialyzed FBS, 0.0211 µM
[27] = RPMI 5 mM glucose + 10% dialyzed FBS, 0.0632 µM
[28] = RPMI 5 mM glucose + 10% dialyzed FBS, 0.19 µM
[29] = RPMI 5 mM glucose + 10% dialyzed FBS, 0.569 µM
[30] = RPMI 5 mM glucose + 10% dialyzed FBS, 1.71 µM
[31] = RPMI 5 mM glucose + 10% dialyzed FBS, 5.12 µM
[32] = RPMI 5 mM glucose + 10% dialyzed FBS, 15.4 µM
[33] = RPMI 5 mM glucose + 10% dialyzed FBS, 46.1 µM

Work on `Nc1ncnc2c1ncn2[C@@H]1O[C@H](CO)C[C@H]1O` yielded a cell viability [1] of 95.8%, a cell viability [2] of 98% and a cell viability [3] of 111%. It also gave a cell viability [4] of 106%, a cell viability [5] of 111% and a cell viability [6] of 101%. The cell viability [7] was 103%, the cell viability [8] was 97.4% and the cell viability [9] was 79.7%. It also gave a cell viability [10] of 59.4%, a cell viability [11] of 41.2% and a cell viability [12] of 95%. The cell viability [13] was 96%, the cell viability [14] was 99.6% and the cell viability [15] was 98.7%. The cell viability [16] was 104%, the cell viability [17] was 93.2% and the cell viability [18] was 95.4%. The cell viability [19] was 93.6%, the cell viability [20] was 97.8% and the cell viability [21] was 73%. The cell viability [22] was 67.7%, the cell viability [23] was 86.7% and the cell viability [24] was 93.4%. For the same molecule, the cell viability [25] was 87.9%, the cell viability [26] was 99.7% and the cell viability [27] was 96.1%. For the same molecule, the cell viability [28] was 91.7%, the cell viability [29] was 95.6% and the cell viability [30] was 89.6%. For the same molecule, the cell viability [31] was 91.1%, the cell viability [32] was 65% and the cell viability [33] was 41.7%.
`CC(C)c1cc(C(C)C)c(CC(=O)N[S+](=O)([O-])Oc2c(C(C)C)cccc2C(C)C)c(C(C)C)c1` was tested, and the cell viability [1] was 93.7%, the cell viability [2] was 108% and the cell viability [3] was 107%. For the same molecule, the cell viability [4] was 96.2%, the cell viability [5] was 100% and the cell viability [6] was 106%. The cell viability [7] was 108%, the cell viability [8] was 102% and the cell viability [9] was 99.7%. The cell viability [10] was 99%, the cell viability [11] was 95.1% and the cell viability [12] was 114%. For the same molecule, the cell viability [13] was 119%, the cell viability [14] was 114% and the cell viability [15] was 121%. It also gave a cell viability [16] of 114%, a cell viability [17] of 121% and a cell viability [18] of 116%. For the same molecule, the cell viability [19] was 115%, the cell viability [20] was 130% and the cell viability [21] was 122%. For the same molecule, the cell viability [22] was 115%, the cell viability [23] was 90.5% and the cell viability [24] was 104%. For the same molecule, the cell viability [25] was 103%, the cell viability [26] was 104% and the cell viability [27] was 108%. For the same molecule, the cell viability [28] was 104%, the cell viability [29] was 103% and the cell viability [30] was 97.3%. The cell viability [31] was 96.8%, the cell viability [32] was 88.6% and the cell viability [33] was 93.3%.
Molecule `CC(C(=O)O)c1ccc2c(c1)CC(=O)c1ccccc1S2` (centres undefined) has a cell viability [1] of 99.9%, a cell viability [2] of 117% and a cell viability [3] of 109%. For the same molecule, the cell viability [4] was 115%, the cell viability [5] was 94.3% and the cell viability [6] was 112%. It also gave a cell viability [7] of 95.4%, a cell viability [8] of 114% and a cell viability [9] of 126%. It also gave a cell viability [10] of 116%, a cell viability [11] of 115% and a cell viability [12] of 111%. It also gave a cell viability [13] of 109%, a cell viability [14] of 116% and a cell viability [15] of 104%. It also gave a cell viability [16] of 103%, a cell viability [17] of 105% and a cell viability [18] of 117%. For the same molecule, the cell viability [19] was 121%, the cell viability [20] was 99.4% and the cell viability [21] was 107%. The cell viability [22] was 96.5%, the cell viability [23] was 122% and the cell viability [24] was 115%. It also gave a cell viability [25] of 129%, a cell viability [26] of 133% and a cell viability [27] of 124%. The cell viability [28] was 108%, the cell viability [29] was 116% and the cell viability [30] was 117%. For the same molecule, the cell viability [31] was 110%, the cell viability [32] was 129% and the cell viability [33] was 118%.
`Cc1csc(-c2nnc(Nc3ccc(Oc4ncccc4-c4ccnc(N)n4)cc3)c3ccccc23)c1` showed a cell viability [1] of 104%, a cell viability [2] of 114% and a cell viability [3] of 114%. For the same molecule, the cell viability [4] was 56%, the cell viability [5] was 46% and the cell viability [6] was 48.9%. For the same molecule, the cell viability [7] was 45%, the cell viability [8] was 42.1% and the cell viability [9] was 32.5%. For the same molecule, the cell viability [10] was 36.5%, the cell viability [11] was 34.2% and the cell viability [12] was 108%. For the same molecule, the cell viability [13] was 100%, the cell viability [14] was 102% and the cell viability [15] was 55.2%. The cell viability [16] was 25.5%, the cell viability [17] was 24.5% and the cell viability [18] was 23.9%. The cell viability [19] was 28.6%, the cell viability [20] was 18.7% and the cell viability [21] was 18.7%. The cell viability [22] was 21%, the cell viability [23] was 94% and the cell viability [24] was 107%. It also gave a cell viability [25] of 115%, a cell viability [26] of 36.4% and a cell viability [27] of 30%. The cell viability [28] was 34%, the cell viability [29] was 34.6% and the cell viability [30] was 29.1%. For the same molecule, the cell viability [31] was 29.5%, the cell viability [32] was 28.5% and the cell viability [33] was 28.5%.
`CC#CCn1c(N2CCC[C@@H](N)C2)nc2c1c(=O)n(Cc1nc(C)c3ccccc3n1)c(=O)n2C` showed a cell viability [1] of 107%, a cell viability [2] of 114% and a cell viability [3] of 115%. It also gave a cell viability [4] of 42.6%, a cell viability [5] of 115% and a cell viability [6] of 104%. For the same molecule, the cell viability [7] was 112%, the cell viability [8] was 109% and the cell viability [9] was 111%. For the same molecule, the cell viability [10] was 116%, the cell viability [11] was 83.3% and the cell viability [12] was 105%. It also gave a cell viability [13] of 97.9%, a cell viability [14] of 105% and a cell viability [15] of 40.3%. The cell viability [16] was 114%, the cell viability [17] was 102% and the cell viability [18] was 112%. The cell viability [19] was 108%, the cell viability [20] was 109% and the cell viability [21] was 102%. For the same molecule, the cell viability [22] was 88.7%, the cell viability [23] was 96.8% and the cell viability [24] was 94.4%. For the same molecule, the cell viability [25] was 88.7%, the cell viability [26] was 45.6% and the cell viability [27] was 108%. For the same molecule, the cell viability [28] was 96%, the cell viability [29] was 108% and the cell viability [30] was 93.9%. The cell viability [31] was 93.5%, the cell viability [32] was 99.1% and the cell viability [33] was 75.2%.
With `CCCCCNC(=O)N1CCC(CN(Cc2ccc(Cl)cc2)Cc2ccc([N+](=O)[O-])s2)C1` (centres undefined) the cell viability [12] was 113%, the cell viability [13] was 118% and the cell viability [14] was 129%. For the same molecule, the cell viability [15] was 116%, the cell viability [16] was 134% and the cell viability [17] was 120%. It also gave a cell viability [18] of 122%, a cell viability [19] of 126% and a cell viability [20] of 121%. It also gave a cell viability [21] of 79.5%, a cell viability [22] of 56.1% and a cell viability [23] of 113%. For the same molecule, the cell viability [24] was 134%, the cell viability [25] was 108% and the cell viability [26] was 107%. The cell viability [27] was 114%, the cell viability [28] was 128% and the cell viability [29] was 121%. The cell viability [30] was 127%, the cell viability [31] was 132% and the cell viability [32] was 102%. It also gave a cell viability [33] of 48.2%.
In the case of `NC[C@H]1O[C@H](O[C@@H]2[C@H](O)[C@@H](O[C@H]3O[C@H](CO)[C@@H](O)[C@H](N)[C@H]3O)[C@H](N)C[C@@H]2N)[C@H](O)[C@@H](O)[C@@H]1O`, the cell viability [1] is reported as 96.6%, the cell viability [2] is reported as 93.3% and the cell viability [3] is reported as 100%. The cell viability [4] was 24%, the cell viability [5] was 88.6% and the cell viability [6] was 105%. For the same molecule, the cell viability [7] was 105%, the cell viability [8] was 96.8% and the cell viability [9] was 105%. For the same molecule, the cell viability [10] was 90.1%, the cell viability [11] was 87.3% and the cell viability [23] was 115%. The cell viability [24] was 125%, the cell viability [25] was 124% and the cell viability [26] was 23%. For the same molecule, the cell viability [27] was 113%, the cell viability [28] was 83.3% and the cell viability [29] was 107%. For the same molecule, the cell viability [30] was 113%, the cell viability [31] was 105% and the cell viability [32] was 104%. It also gave a cell viability [33] of 92.4%.
